For series [1], the system named is regulatory T lymphocytes (CD25+). The experiment in a line: Inhibition of suppressant action of regulatory T lymphocytes (CD25+) on splenocyte proliferation. The format is cell-based, Balb-c mice. To be noted: for dose dependence of inhibition of regulatory T lymphocyte action: 50 μM and double dilutions. As to the method: 1. OBTAINMENT OF TOTAL SPLENOCYTES: To obtain splenocytes from 6-week old, female Balb-c mice, 4 animals were sacrificed, and after extracting the spleen, they were transferred to a clean medium for their dispersion with crystals, the homogenate was filtered (70-micron filter) and transferred to 50-ml tubes, for their subsequent washing and centrifugation. The cells obtained were incubated for 1 minute in lysis buffer, for the elimination of erythrocytes and they were subsequently washed with clean culture medium. Finally, the cells obtained were resuspended in 1 ml of AUTOMACS medium and they were counted. 2. PURIFICATION OF CD25+ LYMPHOCYTES: the purification of CD25+ lymphocytes was performed by the use of magnetic columns labelling with CD25PE and after incubation, anti-PE magnetic microspheres (Phycoerythrin) were added. After incubation, washing and filtration (30-micron filter) the samples were passed through a magnetic column, obtaining the eluate containing the CD25− population by gravity. Once the column is extracted from the magnetic field it is washed under pressure, obtaining the CD25+ cells. 3. SUPPRESSANT ACTIVITY ASSAY: To verify the regulating nature of the CD25+ population, a total of 100,000 splenocytes was seeded per well on a U-bottomed 96-well plate, in a volume of 200 μl per well and anti-CD3 antibody ([…]) alone or opposing CD25+ or CD25−, placing 25,000 cells per well (CD25+) or 50,000 cells per well (CD25−), performing double dilutions of the concentration of these cells. 4. ASSAY FOR THE INHIBITION OF SUPPRESSANT ACTION BY PEPTIDES: On the U-bottomed 96-well plate, with 200 μl vol/well, 100,000 splenocytes were seeded per well and anti-CD3 antibody (0.5 μl/well) plus 25,000 CD25+ lymphocytes per well. Peptides were added to these mixtures (3 columns/peptide, 50 MicroM in the 1st row and double dilution in the following three rows). 3 peptides were assayed: P17(1-11) SEQ ID NO: 3, P17(1-11)am SEQ ID NO: 4 and AcP17(1-11)am SEQ ID NO: 5. Both this assay and that of the suppressant activity were incubated at 37° C. for 48 h, tritium labelled thymidine was added at 0.5 μCi/well and it is harvested after 8 h, subsequently counting the CPM emitted by the cells from each well. 5. VERIFICATION OF THE EFFECTIVE SEPARATION OF THE Treg: Labelling with fluorescent anti-CD4 and anti-CD25 antibodies and analysis by flow cytometry (89% of the population magnetically separated is DC4+CD25+).

Series [2] relates to MC38, LLC, CT26 and RENCA tumour lines. The experiment in a line: NK cell cytotoxicity, 51Cr release assay. The format is cell-based, mouse. To be noted: effector cells with/without p17 for 6 days; 4.5 h 51Cr release. As to the method:
They were performed from spleen cells from RAG^−/− mice, without T and B lymphocytes. In some cases, the total splenocytes was cultured on 6-well plates at 4×10^6 cells per ml of RPMI medium enriched with 10% SBF, L-glutamine, antibiotics, non-essential amino acids, β-mercaptoethanol and human recombinant interleukin-2 (Chiron) at 600 IU/ml. In half the wells, peptide p17 was added at a concentration of 150 μg/ml. After 48 hours, the medium was removed and the wells were washed with RPMI medium to discard the non-adherent cells. Next, fresh medium was added with/without peptide. On day +5, the medium was again changed, this time replacing all the cells and peptide p17 in the corresponding cultures. The cells counts with trypan blue were performed on days +5 and +6 of this culture. In other cases, NK cells from mouse splenocytes were purified by an immunomagnetic selection using the MiniMACS system, anti-DX5 beads and MS columns (Miltenyi Biotech) according to the manufacturer's instructions. […]
The cytotoxicity of NK cells was verified by standard 4.5 h ^51Cr release assays. […] Finally, the release of ^51Cr due to lysis by NK cells was measured after 4.5 h in a TopCount Scintillation counter (Perkin Elmer). The cytotoxicity was measured as a percentage of Cr released with respect to the total acquired by the cells. […]

For another series, the system named is CT26 cells. The experiment in a line: Tumour growth of subcutaneous CT26 in AH1-immunized mice treated with peptides. To be noted: 50 μg/mouse/48 h i.p. between days 6 and 10, s.c. CT26 on day 0, AH1 immunization 10 days before. The class given is in vivo, balb-c mice. As to the method:
GROUPS: 4 groups of 7 female balb-c mice, of 6 weeks old/group.
AH1+FIA s.c.+p144 (50 μg i.p./dose/mouse) AH1+FIA s.c.+p17(1-11) (50 μg i.p./dose/mouse) DESIGN: AH1+FIA: […]; Peptides: from day −6 on alternate days until day 10: Tumour model volume: Each 3 days from day 10 to day 41. Challenge on day 0 with CT26 (500000 cells/mouse s.c. in the flank).
REDUCTION IN THE MEAN TUMOUR VOLUME BY GROUPS TREATED WITH PEPTIDES: The effect of peptides p144 and p17(1-11)Am was studied in a tumour progression model. In this model, mice were immunized with 50 μg of AH1 10 days before the administration of 5×10^5 CT26 cells. In order to verify the effect of blocking the TGF-β1 on the protection against CT tumour cells, another two groups of mice were treated on alternate days by intraperitoneal route between days 6 and 10 (50 μg/mouse/48 h) with peptides p144 and p17(1-11)Am. […] This protection reached 100% of the animals in the case of p144 (FIG. 16).

Entries after “also recorded” stand apart in the source; their conditions may differ. Where no end group is shown, it is not given here.

“Acp17(1-11)am: p17(1-11)am which further has position 1 (lysine) acetylated, SEQ ID NO: 5 (Ac-KRIWFIPRSSW-NH2)”: the “dose dependence of inhibition of regulatory T lymphocyte action” value in series [1] is given as “dose-dependent”. In addition, the “inhibition of the suppressant effect of regulatory T lymphocytes” value (from here on “inhibition … of regulatory T lymphocytes”) is on record as 148% in series [1] (peptide 25 μM) and “totally inhibiting” in series [1] (peptide 50 μM).

Take KRIWFIPRSSWYERA [p17]: in series [2], the “cytotoxic activity of NK cells against tumour lines” value is “improves the cytotoxic activity; also recorded: increases the cytotoxicity”.

Take “p17(1-11): fragment of peptide p17, amino acids 1 to 11, SEQ ID NO: 3 (KRIWFIPRSSW)”: the “inhibition … of regulatory T lymphocytes” value in series [1] (peptide 50 μM) is on record as 20%.

Consider “p17(1-11)am: amino acids 1 to 11 of peptide p17, position 11 (tryptophan) amidated, SEQ ID NO: 4 (KRIWFIPRSSW-NH2)”, for which the “dose dependence of inhibition of regulatory T lymphocyte action” value in series [1] is “dose-dependent”. Besides, the “inhibition … of regulatory T lymphocytes” value is recorded as 128% in series [1] (peptide 50 μM) and “totally inhibiting” in series [1] (peptide 50 μM, listed as P17(1-1)am). Moreover, the tumour growth entry in the series on CT26 cells was “delay tumour growth”; with CT26 cells (listed as p17(1-11)Am) it was “protection against tumour growth”.

Values taken from patent publication US20090263410A1, “USE OF TGF-B1 INHIBITOR PEPTIDES IN THE PREPARATION OF AN IMMUNE RESPONSE MODULATING AGENT” (Proyecto De Biomedicina Cima, S.L., priority 2005, published 2009).
